What was measured:
Assay in all cases: relative viability (nuclei count vs DMSO), 5 days (fraction); higher = more cells survive
Idelalisib + Trametinib = compound: CC[C@H](Nc1ncnc2[nH]cnc12)c1nc2cccc(F)c2c(=O)n1-c1ccccc1 [Idelalisib] + CC(=O)Nc1cccc(-n2c(=O)n(C3CC3)c(=O)c3c(Nc4ccc(I)cc4F)n(C)c(=O)c(C)c32)c1 [Trametinib] (partner 0.02 µM)
Summary of the method: (§1)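 The day after seeding in 1536-well plates, lung cancer cell lines were treated by pin tool with a single drug, or with a fixed anchor-drug dose together with five library-drug doses (not always all listed) in √10 steps. After 5 days, a combined fix-and-stain solution (final 0.05% Triton X-100, 1% formaldehyde, 1 ug/ml Hoechst) was added. Nuclei counted on 4× images gave relative viability as treated counts over vehicle counts, reported as the median of duplicate plates.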

Pemetrexed + Phenformin = compound: Nc1nc2[nH]cc(CCc3ccc(C(=O)N[C@@H](CCC(=O)O)C(=O)O)cc3)c2c(=O)[nH]1 [Pemetrexed] + N=C(N)NC(=N)NCCc1ccccc1 [Phenformin] (partner 250 µM)
Summary of the method: as §1

Pemetrexed + Foretinib = compound: Nc1nc2[nH]cc(CCc3ccc(C(=O)N[C@@H](CCC(=O)O)C(=O)O)cc3)c2c(=O)[nH]1 [Pemetrexed] + COc1cc2c(Oc3ccc(NC(=O)C4(C(=O)Nc5ccc(F)cc5)CC4)cc3F)ccnc2cc1OCCCN1CCOCC1 [Foretinib] (partner 0.25 µM)
Summary of the method: as §1

Idelalisib + Olaparib = compound: CC[C@H](Nc1ncnc2[nH]cnc12)c1nc2cccc(F)c2c(=O)n1-c1ccccc1 [Idelalisib] + O=C(c1cc(Cc2n[nH]c(=O)c3ccccc23)ccc1F)N1CCN(C(=O)C2CC2)CC1 [Olaparib] (partner 8 µM)
Summary of the method: as §1

Row | Cell Line | relative viability (Idelalisib + Trametinib; first compound 0.04 µM) | relative viability (Idelalisib + Trametinib; first compound 0.1265 µM) | relative viability (Idelalisib + Trametinib; first compound 0.4 µM) | relative viability (Idelalisib + Trametinib; first compound 1.265 µM) | relative viability (Idelalisib + Trametinib; first compound 4 µM) | relative viability (Pemetrexed + Phenformin; first compound 0.002 µM) | relative viability (Pemetrexed + Phenformin; first compound 0.006325 µM) | relative viability (Pemetrexed + Phenformin; first compound 0.02 µM) | relative viability (Pemetrexed + Phenformin; first compound 0.06325 µM) | relative viability (Pemetrexed + Phenformin; first compound 0.2 µM) | relative viability (Pemetrexed + Foretinib; first compound 0.002 µM) | relative viability (Pemetrexed + Foretinib; first compound 0.006325 µM) | relative viability (Pemetrexed + Foretinib; first compound 0.02 µM) | relative viability (Pemetrexed + Foretinib; first compound 0.06325 µM) | relative viability (Pemetrexed + Foretinib; first compound 0.2 µM) | relative viability (Idelalisib + Olaparib; first compound 0.04 µM) | relative viability (Idelalisib + Olaparib; first compound 0.1265 µM) | relative viability (Idelalisib + Olaparib; first compound 0.4 µM) | relative viability (Idelalisib + Olaparib; first compound 1.265 µM) | relative viability (Idelalisib + Olaparib; first compound 4 µM)
1 | NCI-H1993 | 0.688 | 0.302 | 0.617 | 0.547 | 0.448 | 0.445 | 0.455 | 0.493 | 0.532 | 0.489 | 0.806 | 0.838 | 0.74 | 0.774 | 0.811 | 1.16 | 1.07 | 0.866 | 0.915 | 0.791
2 | EMC-BAC-2 | 0.953 | 0.875 | 0.795 | 0.863 | 0.859 | 0.481 | 0.523 | 0.615 | 0.58 | 0.423 | 1.02 | 0.923 | 1.01 | 1 | 0.902 | 0.459 | 0.518 | 0.477 | 0.472 | 0.476
3 | NCI-H2087 | 0.206 | 0.23 | 0.204 | 0.205 | 0.156 | 0.397 | 0.446 | 0.475 | 0.473 | 0.47 | 1.09 | 1.01 | 1.17 | 0.986 | 0.783 | 0.498 | 0.628 | 0.517 | 0.658 | 0.591
4 | NCI-H441 | 0.437 | 0.484 |  | 0.615 | 0.396 | 0.594 | 0.793 | 0.515 | 0.555 | 0.393 | 1.02 | 0.926 | 1.08 | 0.741 | 0.438 | 0.532 | 0.582 |  | 0.618 | 0.55
5 | LXF-289 | 0.694 | 0.706 | 0.655 | 0.721 | 0.734 | 0.497 | 0.504 | 0.525 | 0.52 | 0.479 | 0.925 | 0.994 | 1.03 | 0.991 | 0.959 | 1.13 | 1.07 | 1.02 | 1.06 | 1.04
6 | NCI-H661 | 0.585 | 0.579 | 0.535 | 0.618 | 0.502 | 0.288 | 0.28 | 0.286 | 0.276 | 0.273 | 1.03 | 0.987 | 1.01 | 0.985 | 0.974 | 0.821 | 0.783 | 0.738 | 0.888 | 0.764
7 | PC-3 [JPC-3] | 0.721 | 0.69 | 0.724 | 0.607 | 0.496 | 0.476 | 0.517 | 0.537 | 0.486 | 0.478 | 0.93 | 1.05 | 1.02 | 1.05 | 1.01 | 1.09 | 1.23 | 1.08 | 1.13 | 0.953
8 | HCC-366 | 0.362 | 0.464 | 0.274 | 0.354 | 0.233 | 0.515 | 0.616 | 0.672 | 0.612 | 0.571 | 0.799 | 0.888 | 0.963 | 0.863 | 0.901 | 0.386 | 0.412 | 0.348 | 0.305 | 0.315
9 | NCI-H1651 | 0.825 | 0.85 | 0.815 | 0.844 | 0.814 | 0.299 | 0.354 | 0.377 | 0.285 | 0.368 | 0.673 | 0.772 | 0.826 | 0.754 | 0.737 | 0.19 | 0.171 | 0.184 | 0.161 | 0.179
10 | NCI-H1355 | 0.305 | 0.38 | 0.41 | 0.467 | 0.284 | 0.432 | 0.468 | 0.45 | 0.503 | 0.438 | 0.864 | 0.956 | 1.05 | 1.01 | 0.948 | 0.78 | 0.694 | 0.632 | 0.776 | 0.673
11 | LC-2-ad | 0.963 | 0.957 | 0.931 | 1.02 | 0.806 | 0.518 | 0.567 | 0.492 | 0.335 | 0.374 | 0.818 | 0.946 | 0.526 | 0.296 | 0.284 | 0.691 | 0.728 | 0.764 | 0.805 | 0.734
12 | NCI-H1944 | 0.448 | 0.354 | 0.336 | 0.352 | 0.318 |  | 0.229 | 0.207 | 0.189 | 0.189 |  | 0.83 | 0.922 | 0.831 | 0.837 | 0.427 | 0.395 | 0.388 | 0.394 | 0.406
13 | HCC-827 | 0.578 | 0.517 | 0.473 | 0.476 | 0.424 | 0.366 | 0.417 | 0.436 | 0.4 | 0.37 | 0.903 | 1.03 | 1.03 | 1.01 | 0.916 | 0.667 | 0.613 | 0.612 | 0.571 | 0.491
14 | COR-L23 | 0.603 | 0.639 | 0.538 | 0.62 | 0.578 | 0.394 | 0.431 | 0.47 | 0.26 | 0.173 | 1.01 | 1.07 | 0.946 | 0.497 | 0.239 | 0.368 | 0.326 | 0.348 | 0.327 | 0.316
15 | NCI-H3122 | 0.224 | 0.223 | 0.188 | 0.235 | 0.225 | 0.419 | 0.37 | 0.374 | 0.336 | 0.205 | 0.931 | 0.972 | 0.973 | 0.973 | 0.72 | 0.611 | 0.626 | 0.669 | 0.584 | 0.49
16 | NCI-H2170 | 1.05 | 0.941 | 0.851 | 0.893 | 0.805 | 0.449 | 0.443 | 0.424 | 0.42 | 0.405 | 0.918 | 1.02 | 0.999 | 1 | 1.02 | 0.606 | 0.679 | 0.643 | 0.558 | 0.515

— the supplement of paper PMC10307832
